This is an account of results in patent publication US20250163104A1, “MACROCYCLIC IMMUNOMODULATORS” (priority 2021, published 2025).

*1 amine or outer side, *2 acyl side, *3 side chain or, on linkers, in order; H or OH if unused. Where a SMILES comes first, the peptide text is derived from it. Bridges are numbered along the chain shown (N, C = ends). [ ]: non-standard residue; d: D form. The star is where a group is joined. ξ: configuration not given here. Phe(4-COOH) = N[C@@H](Cc1ccc(C(=O)O)cc1)C(=O)O; Bip = N[C@@H](Cc1ccc(-c2ccccc2)cc1)C(=O)O; Phe(3-OMe) = COc1cccc(C[C@H](N)C(=O)O)c1; Phe(3-Me) = Cc1cccc(C[C@H](N)C(=O)O)c1; Val(3-OH) = CC(C)(O)[C@H](N)C(=O)O; 4Pal = N[C@@H](Cc1ccncc1)C(=O)O; Cha = N[C@@H](CC1CCCCC1)C(=O)O; Cit = NC(=O)NCCC[C@H](N)C(=O)O; Ile(3ξ) = CCC(C)[C@H](N)C(=O)O; Thr(3ξ) = CC(O)[C@H](N)C(=O)O; Chg = N[C@H](C(=O)O)C1CCCCC1; X6 = O=C(C(CCCO)N[*:1])[*:2]; Carboxymethyl = O=C(O)C*; NMeAib = CNC(C)(C)C(=O)O; Orn = NCCC[C@H](N)C(=O)O; Pra = C#CC[C@H](N)C(=O)O; Dab = NCC[C@H](N)C(=O)O; Dap = NC[C@H](N)C(=O)O; NH(CH2)3NH2 = NCCCN*; Piv = CC(C)(C)C(=O)*

For this experiment, the target named is T1, human PD-1 / PD-L1-Ig binding on Jurkat cell line over-expressing human PD-1 (Jurkat-PD-1) (Homo sapiens, UniProt Q15116).
T1 construct: expressed in transfected cells; host or cells: Jurkat
As to the kind of experiment: Jurkat-PD-1 Cell Binding High-Content Screening Assay (CBA). It is filed as cell-based. Conditions: Jurkat-PD-1 cells, PE-labeled PD-L1-Ig 20 nM final; read-out: Jurkat HPD1_PDL1 IC50. The method, boiled down:
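PE-PD-L1-Ig 20 nM final; cells in DMEM/10% FCS; cpd pre-incubation 2 h, 37° C; ligand 1 h; PFA fix + Hoechst 33342; high-content imaging read-out.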

T1 sequence (Q15116 25-288): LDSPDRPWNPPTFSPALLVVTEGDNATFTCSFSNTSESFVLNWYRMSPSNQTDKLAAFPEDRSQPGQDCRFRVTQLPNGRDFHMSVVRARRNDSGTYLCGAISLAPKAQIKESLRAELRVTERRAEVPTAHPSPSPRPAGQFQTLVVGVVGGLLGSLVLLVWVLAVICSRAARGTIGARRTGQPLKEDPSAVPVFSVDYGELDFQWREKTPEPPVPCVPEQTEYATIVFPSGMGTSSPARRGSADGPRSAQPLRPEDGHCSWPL

Take `C#CC[C@H](NC(=O)[C@H](CCN)NC(=O)[C@@H]1CSCC(=O)N[C@@H](CC(C)C)C(=O)N[C@@H](Cc2ccc(C(=O)O)cc2)C(=O)N[C@@H](CC(=O)O)C(=O)N[C@@H](Cc2cccc(C)c2)C(=O)N[C@@H](Cc2ccc(C(=O)O)cc2)C(=O)N[C@@H](Cc2ccc(-c3ccccc3)cc2)C(=O)N[C@@H](Cc2ccc(C(=O)O)cc2)C(=O)N[C@@H](CCCN)C(=O)N[C@H](CC(C)C)C(=O)N[C@@H](CCN)C(=O)N[C@@H](CC2CCCCC2)C(=O)N[C@@H](C(C)C)C(=O)N[C@@H](CCC(=O)O)C(=O)N1)C(=O)O` [Compound 2706] ({CH2CO}-L[Phe(4-COOH)]D[Phe(3-Me)][Phe(4-COOH)][Bip][Phe(4-COOH)][Orn][dL][Dab][Cha]VEC[Dab][Pra]-OH; thioether N-14): the IC50 worked out at 2.4 nM.
With `Cc1cccc(C[C@@H]2NC(=O)[C@H](CC(=O)O)NC(=O)[C@H](Cc3ccc(OCC(=O)O)cc3)NC(=O)[C@H](CN)NC(=O)CSC[C@@H](C(=O)N[C@@H](CCN)C(N)=O)NC(=O)[C@H]([C@@H](C)O)NC(=O)[C@H](C(C)C)NC(=O)[C@H](CC3CCCCC3)NC(=O)[C@H](CCNC(=O)C(C)(C)C)NC(=O)[C@@H](CC(C)C)NC(=O)[C@H](CCN)NC(=O)[C@H](Cc3ccc(OCC(=O)O)cc3)NC(=O)[C@H](Cc3ccc(-c4ccccc4)cc3)NC(=O)[C@H](Cc3ccc(OCC(=O)O)cc3)NC2=O)c1` [Compound 2063] ({CH2CO}-[Dap]Y(Carboxymethyl)D[Phe(3-Me)]Y(Carboxymethyl)[Bip]Y(Carboxymethyl)[Dab][dL][Dab](Piv)[Cha]VTC[Dab]-NH2; thioether N-14), the IC50 came out at 16.2 nM.
To `CC(C)C[C@H]1NC(=O)[C@H](CCCN)NC(=O)[C@H](CCC(=O)O)NC(=O)[C@H](Cc2ccc(-c3ccccc3)cc2)NC(=O)[C@H](C(C)C)NC(=O)[C@H](Cc2cccc(Cl)c2)NC(=O)[C@H](CC(=O)O)NC(=O)[C@H](Cc2ccc(C(=O)O)cc2)NC(=O)[C@H](Cc2ccc(OCC(=O)O)cc2)NC(=O)CSC[C@@H](C(=O)N[C@@H](C)C(N)=O)NC(=O)[C@H]([C@@H](C)O)NC(=O)[C@H](C(C)C)NC(=O)[C@H](CC2CCCCC2)NC(=O)[C@H](CCN)NC1=O` [Compound 1492] belongs 27.4 nM; to `CC(C)C[C@@H]1NC(=O)[C@H](Cc2c[nH]c3ccccc23)NC(=O)[C@H](CC(=O)O)NC(=O)[C@H](Cc2ccc(C(=O)O)cc2)NC(=O)[C@H](Cc2ccc(OCC(=O)O)cc2)NC(=O)CSC[C@@H](C(=O)NCC(N)=O)NC(=O)[C@H](CO)NC(=O)[C@H](C(C)C)NC(=O)[C@H](CC(C)C)NC(=O)[C@H](CC(N)=O)NC(=O)[C@@H](CC(C)C)NC(=O)[C@H](CCCN)NC(=O)[C@H](C(C)C)NC(=O)[C@H](Cc2ccc(-c3ccccc3)cc2)NC1=O` [Compound 1283] ({CH2CO}-Y(Carboxymethyl)[Phe(4-COOH)]DWL[Bip]V[Orn][dL]NLVSCG-NH2; thioether N-14), 24.5 nM; to `Cc1cccc(C[C@@H]2NC(=O)[C@H](CC(=O)O)NC(=O)[C@H](Cc3ccc(OCC(=O)O)cc3)NC(=O)[C@H](CN)NC(=O)CSC[C@@H](C(=O)N[C@@H](CCCN)C(N)=O)NC(=O)[C@H]([C@@H](C)O)NC(=O)[C@H](C(C)C)NC(=O)[C@H](CC3CCCCC3)NC(=O)[C@H](CCN)NC(=O)[C@@H](CC(C)C)NC(=O)[C@H](CCCN)NC(=O)[C@H](CCCNC(N)=O)NC(=O)[C@H](Cc3ccc(-c4ccccc4)cc3)NC(=O)[C@H](C(C)C)NC2=O)c1` [Compound 2011] ({CH2CO}-[Dap]Y(Carboxymethyl)D[Phe(3-Me)]V[Bip][Cit][Orn][dL][Dab][Cha]VTC[Orn]-NH2; thioether N-14), 11.9 nM.
To `Cc1cccc(C[C@@H]2NC(=O)[C@H](CC(=O)O)NC(=O)[C@H](Cc3ccc(OCC(=O)O)cc3)NC(=O)[C@H](Cc3ccncc3)NC(=O)CSC[C@@H](C(=O)N[C@@H](CO)C(=O)NCCCN)NC(=O)[C@H](C(C)O)NC(=O)[C@H](C(C)(C)O)NC(=O)[C@H](CC3CCCCC3)NC(=O)[C@H](Cc3cnc[nH]3)NC(=O)[C@@H](CC(C)C)NC(=O)[C@H](CCCN)NC(=O)[C@H](Cc3ccc(OCC(=O)O)cc3)NC(=O)[C@H](Cc3ccc(-c4ccccc4)cc3)NC(=O)[C@H](Cc3ccc(OCC(=O)O)cc3)NC2=O)c1` (stereo partly drawn) [Compound 2647] ({CH2CO}-[4Pal]Y(Carboxymethyl)D[Phe(3-Me)]Y(Carboxymethyl)[Bip]Y(Carboxymethyl)[Orn][dL]H[Cha][Val(3-OH)][Thr(3ξ)]CS-{NH(CH2)3NH2}; thioether N-14) belongs 22.8 nM.
Next, `CCC(C)[C@@H]1NC(=O)[C@H](Cc2ccc(-c3ccccc3)cc2)NC(=O)[C@H](Cc2ccc(C(=O)O)cc2)NC(=O)[C@H](Cc2cccc(C)c2)NC(=O)[C@H](CC(=O)O)NC(=O)[C@H](Cc2ccc(C(=O)O)cc2)NC(=O)[C@H](Cc2ccncc2)NC(=O)CSC[C@@H](C(=O)N[C@H](C)C(N)=O)NC(=O)[C@H](CCC(=O)O)NC(=O)[C@H](C(C)(C)O)NC(=O)[C@H](CC2CCCCC2)NC(=O)[C@H](CCN)NC(=O)[C@@H](CC(C)C)NC(=O)[C@H](Cc2cnc[nH]2)NC1=O` (stereo partly drawn) [Compound 2666] ({CH2CO}-[4Pal][Phe(4-COOH)]D[Phe(3-Me)][Phe(4-COOH)][Bip][Ile(3ξ)]H[dL][Dab][Cha][Val(3-OH)]EC[dA]-NH2; thioether N-14): 101 nM; `CC(C)C[C@@H]1NC(=O)[C@H](CCCCN)NC(=O)[C@@H](CC(C)C)NC(=O)[C@H](CCCN)NC(=O)[C@H](C(C)C)NC(=O)[C@H](Cc2ccc(-c3ccccc3)cc2)NC(=O)[C@H](C(C)C)NC(=O)[C@H](Cc2c[nH]c3ccccc23)NC(=O)[C@H](CC(=O)O)NC(=O)[C@H](Cc2ccc(O)cc2)NC(=O)[C@H](CC(N)=O)NC(=O)CSC[C@@H](C(=O)N[C@@H](C)C(N)=O)NC(=O)[C@H]([C@@H](C)O)NC(=O)[C@H](C(C)C)NC1=O` [Compound 1130] ({CH2CO}-NYDWV[Bip]V[Orn][dL]KLVTCA-NH2; thioether N-14): 19.5 nM.
On to `Cc1cccc(C[C@@H]2NC(=O)[C@H](CC(=O)O)NC(=O)[C@H](Cc3ccc(OCC(=O)O)cc3)NC(=O)[C@H](CN)NC(=O)CSC[C@@H](C(=O)N[C@@H](CCN)C(N)=O)NC(=O)C(CCCO)NC(=O)[C@H](C(C)C)NC(=O)[C@H](CC3CCCCC3)NC(=O)[C@H](CCN)NC(=O)[C@@H](CC(C)C)NC(=O)[C@H](CCCN)NC(=O)[C@H](Cc3ccc(O)cc3)NC(=O)[C@H](Cc3ccc(-c4ccccc4)cc3)NC(=O)[C@H](C(C)C)NC2=O)c1` (stereo partly drawn) [Compound 2257] ({CH2CO}-[Dap]Y(Carboxymethyl)D[Phe(3-Me)]V[Bip]Y[Orn][dL][Dab][Cha]V[X6]C[Dab]-NH2; thioether N-14), for which the IC50 amounted to 7.7 nM.
Consider `CC[C@H](C)[C@@H]1NC(=O)[C@H](Cc2ccc(-c3ccccc3)cc2)NC(=O)[C@H](C2CCCCC2)NC(=O)[C@H](Cc2c[nH]c3ccccc23)NC(=O)[C@H](CC(=O)O)NC(=O)[C@H](Cc2ccc(OCC(=O)O)cc2)NC(=O)[C@H](CN)NC(=O)CSC[C@@H](C(=O)N[C@@H](C)C(N)=O)NC(=O)[C@H]([C@@H](C)O)NC(=O)[C@H](C(C)C)NC(=O)[C@H](CC2CCCCC2)NC(=O)[C@H](CCN)NC(=O)[C@@H](CC(C)C)NC(=O)[C@H](CCCN)NC1=O` [Compound 1722] ({CH2CO}-[Dap]Y(Carboxymethyl)DW[Chg][Bip]I[Orn][dL][Dab][Cha]VTCA-NH2; thioether N-14), for which the IC50 was 27.5 nM.
With `CC(C)C[C@H]1NC(=O)[C@H](CCCN)NC(=O)[C@H](CN)NC(=O)[C@H](Cc2ccc(-c3ccccc3)cc2)NC(=O)[C@H](C(C)C)NC(=O)[C@H](Cc2c[nH]c3ccccc23)NC(=O)[C@H](CC(=O)O)NC(=O)[C@H](Cc2ccc(C(=O)O)cc2)NC(=O)[C@H](Cc2ccc(OCC(=O)O)cc2)NC(=O)CSC[C@@H](C(=O)N[C@@H](C)C(N)=O)NC(=O)[C@H](CO)NC(=O)[C@H](C(C)C)NC(=O)[C@H](CC2CCCCC2)NC(=O)[C@H](CCN)NC1=O` [Compound 2540] ({CH2CO}-Y(Carboxymethyl)[Phe(4-COOH)]DWV[Bip][Dap][Orn][dL][Dab][Cha]VSCA-NH2; thioether N-14), the IC50 came to 16.1 nM.
For the molecule `COc1cccc(C[C@@H]2NC(=O)[C@H](CC(=O)O)NC(=O)[C@H](Cc3ccncc3)NC(=O)[C@H](CN)NC(=O)CSC[C@@H](C(=O)N[C@@H](C)C(N)=O)NC(=O)[C@H]([C@@H](C)O)NC(=O)[C@H](C(C)C)NC(=O)[C@H](CC3CCCCC3)NC(=O)[C@H](CCN)NC(=O)[C@@H](CC(C)C)NC(=O)[C@H](CCCN)NC(=O)[C@H](CCC(=O)O)NC(=O)[C@H](Cc3ccc(-c4ccccc4)cc3)NC(=O)[C@H](C(C)C)NC2=O)c1` [Compound 1546] ({CH2CO}-[Dap][4Pal]D[Phe(3-OMe)]V[Bip]E[Orn][dL][Dab][Cha]VTCA-NH2; thioether N-14), the IC50 amounted to 9 nM.
Turning to `Cc1cccc(C[C@@H]2NC(=O)[C@H](CC(=O)O)NC(=O)[C@H](Cc3ccc(C(=O)O)cc3)NC(=O)C(C)(C)N(C)C(=O)CSC[C@@H](C(=O)N[C@@H](CCN)C(N)=O)NC(=O)[C@H](CCC(=O)O)NC(=O)[C@H](C(C)(C)O)NC(=O)[C@H](CC3CCCCC3)NC(=O)[C@H](CCN)NC(=O)[C@@H](CC(C)C)NC(=O)[C@H](CCCN)NC(=O)[C@H](Cc3ccc(OCC(=O)O)cc3)NC(=O)[C@H](Cc3ccc(-c4ccccc4)cc3)NC(=O)[C@H](Cc3ccc(OCC(=O)O)cc3)NC2=O)c1` [Compound 2689] ({CH2CO}-[NMeAib][Phe(4-COOH)]D[Phe(3-Me)]Y(Carboxymethyl)[Bip]Y(Carboxymethyl)[Orn][dL][Dab][Cha][Val(3-OH)]EC[Dab]-NH2; thioether N-14), the IC50 was found to be 411 nM.

Usually IC50 stands for the concentration that inhibits the measured activity by half.
